Measured values: paper PMC7023064, “Design, Synthesis, and Evaluation of Novel 2-Methoxyestradiol Derivatives as Apoptotic Inducers through an Intrinsic Apoptosis Pathway” (Biomolecules, 2020)
Where two headings read alike, the source gives them in different places.

Tests used:
[1] = tested on: normal human liver L-O2 cell lines; experiment: MTT cytotoxicity assay, L-O2; assay type: cell-based; conditions: mean ± SD of three experiments, No = No inhibition detected
Description: (§1) Human breast adenocarcinoma MCF-7 cell lines, human breast cancer MDA-MB-231 cell lines, and the normal human liver L-O2 cell lines were provided by Nanjing KeyGen Biotech Co. Ltd. (Nanjing, China). MCF-7 cells were cultured in a base medium (90% RPMI-1640 and 10% FBS) at 37 °C, 5% CO2 and a saturated humidity atmosphere. MDA-MB-231 cells were cultured in a base medium (90% […] and 10% FBS) at 37 °C, 5% CO2 and a saturated humidity atmosphere. L-O2 cells were cultured in a base medium (90% DMEM and 10% FBS) at 37 °C, 5% CO2 and a saturated humidity atmosphere.
(§2) The cytotoxicity of the tested compounds was determined using the 3-(4,5-dimethyl-2-thiazolyl)-2,5-diphenyl-2-H-tetrazolium bromide (MTT) assay. Cells were seeded in 96-well plates and incubated in a 5% CO2 incubator at 37 °C. When the cells adhered, compounds at different concentrations were added to every well. After incubation for another 72 h, MTT solution (5 mg/mL) was added into each well and cells were incubated for an additional 4 h. The viable cells were stained with MTT and scanned with an electrophotometer at 570 nm. Each concentration treatment was done in triplicate wells. The half maximal inhibitory concentration (IC50) values were estimated by fitting the inhibition data to a dose-dependent curve using a logistic derivative equation.

[2] = tested on: human breast cancer MDA-MB-231 cell lines; experiment: MTT cytotoxicity assay, MDA-MB-231; assay type: cell-based; conditions: mean ± SD of three experiments
Description: as §1, §2

[3] = tested on: human breast adenocarcinoma MCF-7 cell lines; experiment: MTT cytotoxicity assay, MCF-7; assay type: cell-based
Description: as §1, §2

[4] = tested on: MCF-7 and MDA-MB-231 cell lines; experiment: MTT assay, summary over tested tumor cells; assay type: cell-based, human; conditions: for IC50: Homo sapiens, MCF-7 and MDA-MB-231, read-out: IC50, anti-proliferative activity against tested tumor cells
Description: as §1, §2

[5] = MTT, 72 h, mean ± SD of three experiments, read-out: IC50 MCF-7
[6] = Table 2, mean ± SD of three experiments, read-out: IC50 for MCF-7
[7] = Homo sapiens, MCF7, MTT, 72 h, mean ± SD of three experiments, read-out: IC50 MCF-7
[8] = Homo sapiens, MCF7, Table 2, mean ± SD of three experiments, read-out: IC50 for MCF-7
[9] = Homo sapiens, MCF7, pIC50 = −log(IC50), read-out: pIC50 for MCF-7 (converted)

In the case of “3-[8-(5-Methyl-Uracil-3-yl)-Octyloxy]-2-Methoxy-Estra-1,3,5(10)-Triene-17β-ol [Compound 23a]”, the IC50 ([1]; 72 h) is reported as 25.5 ± 1.86 µM, the IC50 ([2]; 72 h) is reported as 12.7 ± 0.22 µM and the IC50 [3, 5] is reported as 8.75 ± 0.22 µM. For the same compound, the IC50 [3, 6] was 8.75 ± 0.22 µM and the “pIC50 for MCF-7” value ([3]; pIC50 = −log(IC50)) was 5.06.

O=c1[nH]cc(F)c(=O)[nH]1 [Compound 5-FU, reference compound] showed an IC50 ([1]; 72 h) of over 100 µM, an IC50 ([2]; 72 h) of 61.9 ± 2.23 µM and an IC50 [3, 5] of 8.87 ± 0.59 µM.

With COc1cc2c(cc1OCCCCCCCCn1ccc(=O)n(CCCCCCCCOc3cc4c(cc3OC)[C@H]3CC[C@]5(C)[C@@H](O)CC[C@H]5[C@@H]3CC4)c1=O)CC[C@@H]1[C@@H]2CC[C@]2(C)[C@@H](O)CC[C@@H]12 [Compound 22b, 1,3-Bis-{8-[2-Methoxy-17β-Hydroxy-Estra-1,3,5(10)-Triene-3-yl-Oxy]-Octyl}-Uracil] the “IC50 L-O2” value ([1]; 72 h) was “No”, the melting point was 74 to 76 °C and the IC50 ([2]; Homo sapiens, MDA-MB-231, 72 h) was over 100 µM. The IC50 [3, 7] was over 100 µM, the IC50 [3, 8] was over 100 µM and the IC50 [3, 9] was over 100 µM.

Work on “17 β-[6-(5-Methyl-Uracil-3-yl)-Hexyloxy]-2-Methoxy-Estra-1,3,5(10)-Triene-3-ol [Compound 13a]” yielded an IC50 ([1]; 72 h) of 51.4 ± 1.47 µM, an IC50 ([2]; 72 h) of 13.3 ± 0.16 µM and an IC50 [3, 5] of 16.6 ± 1.26 µM. For the same compound, the IC50 [3, 6] was 16.6 ± 1.26 µM and the “pIC50 for MCF-7” value ([3]; pIC50 = −log(IC50)) was 4.78.

Compound “3-[8-(Uracil-3-yl)-Octyloxy]-2-Methoxy-Estra-1,3,5(10)-Triene-17β-ol [Compound 22a]” has an IC50 ([1]; 72 h) of 25.9 ± 1.82 µM, an IC50 ([2]; 72 h) of 9.58 ± 0.98 µM and an IC50 [3, 5] of 10.3 ± 0.37 µM. For the same compound, the IC50 [3, 6] was 10.3 ± 0.37 µM and the “pIC50 for MCF-7” value ([3]; pIC50 = −log(IC50)) was 4.99.

COc1cc2c(cc1OCCCCCCCCn1c(=O)ccn([C@@H]3O[C@H](CO)[C@@H](O)[C@H]3O)c1=O)CC[C@@H]1[C@@H]2CC[C@]2(C)[C@@H](O)CC[C@@H]12 [Compound 19, 3-[8-(1-β-D-Ribofuranosyluracil-3-yl)-Octyloxy]-2-Methoxy-Estra-1,3,5(10)-Triene-17β-ol] showed an IC50 ([1]; Homo sapiens, L02, 72 h) of 32.8 ± 0.65 µM, an IC50 [4] of 3.89 to 16.7 µM and a melting point of 93 to 95 °C. For the same compound, the IC50 ([2]; Homo sapiens, MDA-MB-231, 72 h) was 10.44 ± 0.07 µM, the IC50 [3, 7] was 7.87 ± 0.42 µM and the IC50 [3, 8] was 7.87 ± 0.42 µM. For the same compound, the IC50 [3, 9] was 7.94 µM.

For COc1cc2c(cc1O)CC[C@@H]1[C@@H]2CC[C@]2(C)[C@@H](OCCCCCCn3cc(C)c(=O)n(CCCCCCO[C@H]4CC[C@H]5[C@@H]6CCc7cc(O)c(OC)cc7[C@H]6CC[C@]45C)c3=O)CC[C@@H]12 [Compound 13b, 1,3-Bis-{6-[2-Methoxy-3-Hydroxy-Estra-1,3,5(10)-Triene-17β-yl-oxy]-Hexyl}-5-Methyl-Uracil], the “IC50 L-O2” value ([1]; 72 h) was “No”, the melting point was 84 to 86 °C and the IC50 ([2]; Homo sapiens, MDA-MB-231, 72 h) was over 100 µM. It also gave an IC50 [3, 7] of over 100 µM, an IC50 [3, 8] of over 100 µM and an IC50 [3, 9] of over 100 µM.

COc1cc2c(cc1O)CC[C@@H]1[C@@H]2CC[C@]2(C)[C@@H](O)CC[C@@H]12 [Compound 1, 2-Methoxyestradiol] showed an IC50 ([1]; Homo sapiens, L02, 72 h) of 4.7 ± 0.45 µM, an IC50 ([2]; Homo sapiens, MDA-MB-231, 72 h) of 1.86 ± 0.02 µM and an IC50 [3, 7] of 1.51 ± 0.04 µM. The IC50 [3, 8] was 1.51 ± 0.04 µM and the IC50 [3, 9] was 1.51 µM.

With COc1cc2c(cc1O)CC[C@@H]1[C@@H]2CC[C@]2(C)[C@@H](OCCCCCCCCn3cc(C)c(=O)n(CCCCCCCCO[C@H]4CC[C@H]5[C@@H]6CCc7cc(O)c(OC)cc7[C@H]6CC[C@]45C)c3=O)CC[C@@H]12 [Compound 15b, 1,3-bis-{8-[2-Methoxy-3-Hydroxy-Estra-1,3,5(10)-Triene-17β-yl-oxy]-Octyl}-5-Methyl-Uracil] the “IC50 L-O2” value ([1]; 72 h) was “No”, the melting point was 73 to 75 °C and the IC50 ([2]; Homo sapiens, MDA-MB-231, 72 h) was over 100 µM. For the same compound, the IC50 [3, 7] was over 100 µM, the IC50 [3, 8] was over 100 µM and the IC50 [3, 9] was over 100 µM.

With COc1cc2c(cc1OCCCCCCn1cc(C)c(=O)n(CCCCCCOc3cc4c(cc3OC)[C@H]3CC[C@]5(C)[C@@H](O)CC[C@H]5[C@@H]3CC4)c1=O)CC[C@@H]1[C@@H]2CC[C@]2(C)[C@@H](O)CC[C@@H]12 [Compound 21b, 1,3-bis-{6-[2-Methoxy-17β-Hydroxy-Estra-1,3,5(10)-Triene-3-yl-oxy]-Hexyl}-5-Methyl-Uracil] the IC50 ([1]; Homo sapiens, L02, 72 h) was over 100 µM, the IC50 [4] was about 25 µM and the “selectivity towards cancerous cell lines vs healthy cell line” value ([4]; MCF-7 and MDA-MB-231 vs L-O2) was “about 4 fold”. It also gave a melting point of 79 to 81 °C, an IC50 ([2]; Homo sapiens, MDA-MB-231, 72 h) of 23.8 ± 1.45 µM and an IC50 [3, 7] of 28.4 ± 1.76 µM. The IC50 [3, 8] was 28.4 ± 1.76 µM and the IC50 [3, 9] was 28.2 µM.
